These results are taken from patent US20110263707A1, “MOSQUITO REPELLENT” (BIO & HNT, INC., priority 2007, published 2011).

The assay deals with Aedes aegypti. In words: Examination of repellent activity using skin test (treated forearm in cage of mated female mosquitoes). The class given is in vivo. To be noted: for Effective repellency duration (average ± standard deviation): protection time until arm bitten by two cumulative mosquitoes. From the text:
In this embodiment, Aedes aegypti was used test mosquitoes. The Aedes aegypti was supplied from Korea Research Institute of Bioscience and Biotechnology and reared indoor from generation to generation. The larvae of the Aedes aegypti were reared in a plastic container of 22×14×7 cm containing distilled water with a one to one mixture of chicken feed and yeast. Mosquito pupae were transferred into a paper cup and then placed in a rearing cage to emerge as adults. Here, the rearing cage was constructed with metal net. Males and females of the adult mosquitoes at one to one ratio were put in a rearing cage for two or three days for mating. The female mosquitoes were then used for repellency tests. Eight percent (8%) sugar water was supplied for the adult mosquitoes. The following rearing conditions were maintained: light condition of 16 h:8 h (day:night), temperature of 27±2° C., and relative humidity of 80±10%. In order to examine effectiveness of the mosquito repellents of the prepared sample solutions, one (1) […] of a sample solution was uniformly applied, using a metal rod, on a forearm of a volunteer human test subject between a wrist and an elbow. Thereafter, the arm treated with the test solution was inserted in a bioassay cage constructed with Plexiglass of 50×50×50 cm containing approximately 100 mated female mosquitoes. The number of mosquitoes trying to bite was recorded for three minutes in every thirty minutes for up to 4 hours. The time required to get the arm bitten by two cumulative mosquitoes was regarded as effective repellency duration. A net window of 40×40 cm was present at each side and top of the Plexiglass bioassay cage to allow air ventilation. A 15×15 cm hole was prepared at the front side of the Plexiglass bioassay cage and a long net sleeve was attached to the hole so that the test arm could be put into the cage for repellency test. At the beginning of each repellency test, an arm treated with solvent only was placed in the bioassay cage containing mosquitoes, in order to examine blood feeding activity of the mated female test mosquitoes. This test with the bioassay cage was carried out only when the arm was bitten by at least two mosquitoes for initial three minutes. In Table 3 and Table 4, the repellent efficiency was calculated using the following Equation 1. [formula]

The mark [1] stands for this setting: concentration 2% (0.05 mg/cm^3), 30 minutes.
Setting [2] is: concentration 2% (0.05 mg/cm^3), 60 minutes.
[3] abbreviates: concentration 2% (0.05 mg/cm^3), 90 minutes.
Setting [4] is: concentration 2% (0.05 mg/cm^3), 120 minutes.
[5] abbreviates: concentration 2% (0.05 mg/cm^3), 150 minutes.
Setting [6] is: concentration 2% (0.05 mg/cm^3), 180 minutes.
The mark [7] stands for this setting: concentration 2% (0.05 mg/cm^3), 210 minutes.
[8] abbreviates: concentration 2% (0.05 mg/cm^3), 240 minutes.
The mark [9] stands for this setting: concentration 2% in 91% isopropyl alcohol (0.05 mg/cm^3).
The mark [10] stands for this setting: concentration 10% (0.25 mg/cm^3), 30 minutes.
Where [11] appears, read: concentration 10% (0.25 mg/cm^3), 60 minutes.
[12] abbreviates: concentration 10% (0.25 mg/cm^3), 90 minutes.
Where [13] appears, read: concentration 10% (0.25 mg/cm^3), 120 minutes.
[14] abbreviates: concentration 10% (0.25 mg/cm^3), 150 minutes.
The mark [15] stands for this setting: concentration 10% (0.25 mg/cm^3), 180 minutes.
Setting [16] is: concentration 10% (0.25 mg/cm^3), 210 minutes.
[17] abbreviates: concentration 10% (0.25 mg/cm^3), 240 minutes.
The mark [18] stands for this setting: concentration 10% in 91% isopropyl alcohol (0.25 mg/cm^3), maximum measurement time 240 minutes.

“And” between values parts separate entries of the source, which are not always exact repeats. Equal values may be shown once.

Consider `CCN(CC)C(=O)c1cccc(C)c1` [DEET, N,N-diethyl-m-toluamide], for which the “Repellent efficiency (%) per time” value runs as follows: under setting [1], 100%; under setting [2], 0%; under setting [3], 0%; under setting [4], 0%; under setting [5], 0%; under setting [6], 0%. Also, the “Repellent efficiency (%) per time” value under setting [7] was determined as 0%; the “Repellent efficiency (%) per time” value under setting [8] is 0%; the “Repellent efficiency (%) per time” value under setting [10] worked out at 100%; the “Repellent efficiency (%) per time” value under setting [11] is listed as 100%; the “Repellent efficiency (%) per time” value under setting [12] is 100%; the “Repellent efficiency (%) per time” value under setting [13] is recorded as 100%. Also, the “Repellent efficiency (%) per time” value was 87.5% under setting [14], 81.3% under setting [15], 78.1% under setting [16] and 71.9% under setting [17]. For the same molecule, the “Effective repellency duration (average ± standard deviation)” value under setting [9] is 70 min and 70 ± 10.0 min; the “Effective repellency duration (average ± standard deviation)” value under setting [18] was 218 min and 218 ± 10.8 min.

As for `CC(C)=CCC/C(C)=C\C(=O)O` [Neric acid, (Z,E)-3,7-dimethyl-2,6-octadienoic acid], the “Repellent efficiency (%) per time” value is recorded as 100% under setting [1]; 83.1% under setting [2]; 70.4% under setting [3]; 52.1% under setting [4]; 39.4% under setting [5]; 26.8% under setting [6]. The “Repellent efficiency (%) per time” value is on record as 18.3% under setting [7]; 14.1% under setting [8]; 100% under setting [10]; 100% under setting [11]; 100% under setting [12]; 100% under setting [13]. The “Repellent efficiency (%) per time” value runs as follows: under setting [14], 100%; under setting [15], 100%; under setting [16], 100%; under setting [17], 95.3%. The “Effective repellency duration (average ± standard deviation)” value under setting [9] was 106 ± 16.3 min; the “Effective repellency duration (average ± standard deviation)” value (concentration 2% in 91% isopropyl alcohol (0.05 mg/cm^3), listed as neric acid) is 106 min; the “Effective repellency duration (average ± standard deviation)” value under setting [18] was found to be 240 ± 0 min; the “Effective repellency duration (average ± standard deviation)” value (concentration 10% in 91% isopropyl alcohol (0.25 mg/cm^3), maximum measurement time 240 minutes, listed as neric acid) was 240 min.

Take `CCC(C)OC(=O)N1CCCCC1CCO` (centres unmarked) [Picadirin]: the “Repellent efficiency (%) per time” value is, setting by setting: under setting [10], 85.0%; under setting [11], 85.0%; under setting [12], 85.0%; under setting [13], 80.0%; under setting [14], 75.0%; under setting [15], 72.5%. The “Repellent efficiency (%) per time” value is listed as 62.5% under setting [16] and 47.5% under setting [17]. In addition, the “Effective repellency duration (average ± standard deviation)” value under setting [18] is 158 min and 158 ± 27.5 min.
